Values of other authors as cited in patent US20230404944A1, “CANNABINOID ENCAPSULATION TECHNOLOGY” (ZELIRA THERAPEUTICS OPERATIONS PTY LTD, priority 2020, published 2023).

C=C(C)[C@@H]1CCC(C)=C[C@H]1c1c(O)cc(CCCCC)cc1O [CBD, cannabidiol]
Oral bioavailability in plasma (plasma): approximately 6% | Oral bioavailability in tissues (tissues): ~1%
